# Experiments:
# [1] = tested on: osteoclastogenesis (formation of multinucleated osteoclasts); assay: Osteoclastogenesis inhibition via co-culture system (bone marrow cells + osteoblasts, TRAP staining); format: cell-based, mouse; conditions: 7 days co-culture, vs vehicle control; for inhibition at 1 µM: Mus musculus, Osteoclast, 168 h
# Protocol: Osteoclastogenesis inhibitory effects of the compounds of the present invention were evaluated via a co-culture system (Reference: Endocrinology 137(1996), 2187 to 2190, E. Jimi et al.). A specific experimental method is as follows.
# 1) Preparation of Bone Marrow Cells and Osteoblasts
# Femur and tibia were aseptically dissected from 6 to 8-week-old male ddY mice to harvest bone marrow cells by a conventional method using a syringe. In brief, tissues were removed from the dissected bone, the bone ends were cut off with scissors, and the bone marrow was isolated by pushing a medium-containing syringe (23G) against the one end of the cut bone. The isolated bone marrow was subjected to repeated piston movement of a syringe such that single cells were obtained (Reference: Endocrinology 123(1988), 2600 to 2602, Takahashi et al.). After removal of red blood cells within the bone marrow, the bone marrow cells recovered by centrifugation were placed in an α-MEM supplemented with 10% fetal bovine serum (FBS), followed by counting of nucleated cells and then were immediately used for a co-culture system.
# For the preparation of osteoblasts (Calvarial cells), the cranial bone were aseptically dissected from 1 to 2-day-old neonatal ICR mice and subjected to continuous reaction with a 0.2% collagenase solution to separate osteoblasts. The cell-suspended supernatant was centrifuged to recover osteoblasts which were grown to full confluence in an α-MEM supplemented with 10% FBS and then diluted to a desired cell density for use in the experiment.
# 2) Osteoclastogenesis Inhibition Experiment Via Co-Culture System
# As the medium used for a co-culture system, a differentiation medium with the addition of differentiation factors 1α,25-dihydroxyvitamin D3 (10^−8M) and dexamethasone (10^−8M) to α-MEM supplemented with 10% FBS was used for the induction of osteoclastogenesis. First, the compounds of the present invention dissolved in dimethyl sulfoxide (DMSO) at a concentration of 1 mM were diluted to 2 μM using the above-mentioned differentiation medium. As a vehicle control group, 0.2% (v/v) DMSO was added to the medium. 100 μL/well of each medium was added to 96-well plates. In addition, the above prepared bone marrow cells and osteoblasts were plated onto 96-well plates at a density of 1×10^5 cells/50 μL/well and 3×10^3 cells/50 μL/well, respectively. The total volume/well was 200 μL and the final compound concentration was 1 μM. The control group was 0.1% (v/v) DMSO. The cells were cultured with exchange of the culture media with fresh media containing differentiation factors and test materials (materials containing the compounds of the present invention) at an interval of 2 to 3 days.
# 7 days after culturing of cells, the formation of multinucleated osteoclasts was confirmed by microscopic examination, the medium was removed from the wells and then the cells were fixed in a 10% phosphate-buffered formalin solution. The degree of formation of mature osteoclasts was measured taking advantage of the characteristics of osteoclasts showing a positive reaction to a tartrate-resistant acid phosphatase (TRAP) staining solution. The TRAP staining solution was prepared in a manner such that naphthol AS-MS phosphate as a substrate and a coloring agent (Fast Red Violet LB salt) were dissolved in N,N-dimethylformamide, and a 0.1N NaHCO3 buffer solution containing 50 mM of tartaric acid was added thereto. Among the TRAP-positive cells under a light microscope, multinucleated osteoclasts having 6 to 7 nuclei were regarded as mature osteoclasts.
# The degree of inhibition of osteoclastogenesis was calculated according to the following equation 1. The results are summarized in Table 2 below (Experiments were carried out for 4 wells/experimental group (n=4), and the results are given in terms of mean±standard deviation) […]
# Calvarial cell [2] = assay: Alkaline phosphatase (ALP) activity in osteoblasts (Calvarial cells); format: cell-based, mouse; conditions: 3 days; for activity at 1 µM: Mus musculus, 72 h, read-out: ALP activity (1 μM, % of Control) Calvarial cell
# Protocol: (§1) Differentiation and activity of osteoblasts were indirectly evaluated by measuring an ALP activity having a close relationship with osteogenesis.
# (§2) Osteoblasts (Calvarial cells) prepared in Experimental Example 1 and MC3T3-E1 cells (available from RIKEN Cell Bank, Japan) were collected in α-MEM supplemented with 10% FBS, followed by cell counting. The cells were dispensed into 24-well cultureware at a density of 2×10^4 cells/well. After culturing of the cells for 24 hours, the culture media were discarded and replaced with fresh media in which test compounds were diluted to a concentration of 1 μM (1 mL/well). In addition, the vehicle control group containing 0.1% DMSO was also treated. Under the conditions where the compounds were treated, the cells were cultured in a 5% CO2 […] at 37° for 3 days. When the experiment was terminated, the supernatant was removed and the cells were washed three times with cold phosphate buffer at 4°. 0.2% Triton X-100 was added to the washed cells which were then subjected to three cycles of freezing at −70° and thawing at room temperature for the complete lysis of cells. The cell extracts were pooled and centrifuged to collect the cell supernatant which was used for the measurement of ALP activity and proteins. The protein concentration was measured using a BCA assay kit (manufactured by Sigma-Aldrich). For the measurement of ALP activity, p-nitrophenylphosphate was added to the cell supernatant which was then incubated at 37° for 30 minutes, and the reaction was terminated with the addition of 50 μL of 0.2N sodium hydroxide. The standard curve was plotted at the absorbance of 405 nm using p-nitrophenol as a standard material and then the absorbance of test materials thus reacted was measured to determine the production amount of p-nitrophenol.
# (§3) The ALP activity was calculated by dividing the amount of p-nitrophenol produced from each test material by the protein amount and the reaction time. Therefore, the unit of ALP activity was given in terms of p-nitrophenol/μg protein/min. The results are given in Table 3 where the ALP activity unit of each test material was given in terms of % change through the comparison between the individual test materials and the vehicle control group.
# MC3T3-E1 cell = assay: Alkaline phosphatase (ALP) activity in MC3T3-E1 cells; format: cell-based; conditions: 3 days; for activity at 1 µM: Mus musculus, 72 h, read-out: ALP activity (1 μM, % of Control) MC3T3-E1 cell
# Protocol: as §1, §2, §3
# Calvarial cell [3] = assay: Cytotoxicity test (MTT) in osteoblasts (calvarial cells); conditions: 1 μM, 72 hours, vs vehicle control
# Protocol: Drugs were diluted to a concentration of 2 μM in α-MEM culture media supplemented with 10% FBS. The vehicle control group was established to contain 0.2% DMSO. 100 μL/well of the diluted drugs were dispensed into 96-well plates to which osteoblasts (calvarial cells) prepared in Experimental Example 1 were then added at a density of 1.0×10^4 cells/100 μL/well. Here, the final compound concentration in the cell culture was 1 μM, and the vehicle control group contained 0.1% DMSO. The cells were cultured in a 5% CO2 inhibitorr at 37° for 72 hours. 25 μL of 3-(4,5-dimethyl-2-thiazolyl)-2,5-diphenyl-2H-tetrazolium bromide (MTT) dissolved in PBS (2 mg/mL) was added to each cell culture 4 hours before the end of culture. After completion of the reaction, the plates were centrifuged, the media were discarded, and 100 μL of formazan was added and dissolved in dimethyl sulfoxide (DMSO). Finally, the absorbance of the developed plates was measured at 540 nm. The cell viability was expressed as % concentration in comparison with the vehicle control group.
SMILES,Osteoclastogenesis inhibition (%) ([1]; 1 μM),"ALP activity (1 μM, % of Control) Calvarial cell (Calvarial cell [2])","ALP activity (1 μM, % of Control) MC3T3-E1 cell (MC3T3-E1 cell)",Cell viability (%) Calvarial cell (Calvarial cell [3]) [%],inhibition at 1 µM [1] [%],activity at 1 µM (Calvarial cell [2]) [%],activity at 1 µM (MC3T3-E1 cell) [%]
"CN(C)CC(C)(C)CNc1ccc([N+](=O)[O-])c(Nc2ccc3[nH]ncc3c2)n1 [Compound 16, 2-(1H-indazol-5-yl)amino-6-[(3-dimethylamino-2,2-dimethyl)-propylamino]-3-nitropyridine]",89,123 % of Control,144 % of Control,104,–,–,–
"CC(C)CNc1ccc([N+](=O)[O-])c(Nc2ccc3[nH]ncc3c2)n1 [Compound 8, 2-(1H-indazol-5-yl)amino-6-(isobutylamino)-3-nitropyridine]",–,–,–,96,100,157,240
"CC(C)(C)Nc1ccc([N+](=O)[O-])c(Nc2ccc3[nH]ncc3c2)n1 [Compound 12, 2-(1H-indazol-5-yl)amino-6-(t-butylamino)-3-nitropyridine]",–,–,–,109,99,152,136
"CNc1ccc([N+](=O)[O-])c(Nc2ccc3[nH]ncc3c2)n1 [Compound 5, 2-(1H-indazol-5-yl)amino-6-(methylamino)-3-nitropyridine]",–,–,–,112,89,193,206
"O=[N+]([O-])c1ccc(N2CCC(O)CC2)nc1Nc1ccc2[nH]ncc2c1 [Compound 9, 2-(1H-indazol-5-yl)amino-6-(4-hydroxypiperidino)-3-nitropyridine]",–,–,–,105,100,166,112
"CC(C)c1nccn1-c1ccc([N+](=O)[O-])c(Nc2ccc3[nH]ncc3c2)n1 [Compound 3, 2-(1H-indazol-5-yl)amino-6-(2-isopropylimidazol-1-yl)-3-nitropyridine]",–,–,–,118,95,148,172
"O=[N+]([O-])c1ccc(N2CCNCC2)nc1Nc1ccc2[nH]ncc2c1 [Compound 10, 2-(1H-indazol-5-yl)amino-6-(piperazin-1-yl)-3-nitropyridine]",–,–,–,95,99,189,124
"CC(C)Nc1ccc([N+](=O)[O-])c(Nc2ccc3[nH]ncc3c2)n1 [Compound 6, 2-(1H-indazol-5-yl)amino-6-(isopropylamino)-3-nitropyridine]",–,–,–,97,100,188,207

# Reference: patent US20110306641A1, “NOVEL 2,6-SUBSTITUTED-3-NITROPYRIDINE DERIVATIVE, METHOD FOR PREPARING SAME, AND PHARMACEUTICAL PREPARATION INCLUDING SAME” (priority 2008, published 2011)
